{"source": "patent US20080318954A1", "about": "“Compounds” (Cyclacel Limited, priority 2004, published 2008)", "key": {"[1]": {"test_system": "glycogen synthase activity in HEK293 cells", "test": "Glycogen synthase (GS) assay in HEK293 cells", "type": "cell-based, human", "details": "for fold induction at 5 µM: Homo sapiens, In HEK293 cells at [compound] = 5 μM (Table 2)", "experimental": "(§1) Cells on 10 cm dishes (Human Embryonic Kidney (HEK) 293 cells, L6 rat myocytes, or 3T3 mouse adipocytes) were treated with different concentrations of GSK3-inhibitors or DMSO vehicle for 90 min. Incubation medium was removed and cells were washed with ice-cold phosphate-buffered saline (PBS) prior to lysis on ice in 50 mM HEPES, pH 7.5, 10 mM EDTA, 100 mM NaF, 5 mM DTT, protease inhibitor cocktail (Sigma). After a freeze/thaw cycle the samples are sonicated for 10 sec and centrifuged at 15,000 g for 10 min at 4° C. Lysate supernatants were snap-frozen on liquid nitrogen and stored at −80° C. Lysates were assayed for glycogen synthase activity in buffer (50 mM Tris-HCl, pH 7.8, 20 mM EDTA, 25 mM NaF, 5 mM DTT, 1% glycogen, 0.3 mM UDP-glucose and 0.06 μCi of [^14C]-UDP-glucose in the presence of 0.1 or 10 mM glucose-6-phosphate. The reaction was carried out for 30 min at 30° C. 70 μL of the reaction mixture (total volume 90 μL) were transferred to a GFC 96-well filter plate (bottom sealed with foil), containing 140 μL 96% ethanol. The GFC plate was incubated for 1 h on ice and than washed with 66% ethanol. To each well 100 μL scintillant liquid was added and the radioactivity of the samples was measured using a scintillation counter (Topcount, HP). Data are expressed as -fold increase in glycogen synthase activity ratios over those of control samples."}, "[2]": {"test_system": "glycogen synthase activity in 3T3 mouse adipocytes", "test": "Glycogen synthase (GS) assay in 3T3 mouse adipocytes", "type": "cell-based", "details": "3T3 cells, 40 mM", "experimental": "Mouse pre-adipocytes 3T3-F442A were seeded at 9×10^5 cells per 10 cm dish in DMEM 10% FCS, containing penicillin/streptomycin. When 90% confluent, the same medium was supplemented with 1 μg/mL insulin. After 3-5 days (when most cells were differentiated) insulin was removed and 4 days later the cells were ready to use.\nas §1"}, "[3]": {"test_system": "β-catenin-LEF/TCF transcriptional activity in HEK293 cells", "test": "β-Catenin-LEF/TCF regulated reporter gene assay", "type": "cell-based, human", "details": "LiCl", "description": "Furthermore, the effect of compound XIV on the β-catenin-dependent transcriptional activity, as measured in a luciferase based reporter gene assay, was studied.\nHEK293 cells were transfected with either β-catenin-LEF/TCF-sensitive or β-catenin-LEF/TCF-insensitive reporter vector (Upstate Biotechnology, Inc.) using Lipofectamine Plus reagent (GibcoBRL) according to the manufacturer's instructions. The next day, cells were trypsinized, washed into serum-free medium, counted and seeded at 40,000 cells per well in a 96-well plate. Subsequent to cell attachment, LiCl or GSK-3 inhibitor compound were added to the medium to the required concentrations. Control cells were DMSO vehicle treated. 16 h after inhibitor addition, cells were analyzed for luciferase activity using the Steady-Glo Luciferase assay system (Promega) according to the manufacturer's instructions."}, "GSK-3β": {"molecular_target": "T1, GSK-3β (Oryctolagus cuniculus, UniProt G1T8E2)", "T1 construct": "isolated from a strain of E. coli that carries a clone expressing GSK-3β derived from a rabbit skeletal muscle cDNA library [34]", "T1 sequence (G1T8E2 1-432)": "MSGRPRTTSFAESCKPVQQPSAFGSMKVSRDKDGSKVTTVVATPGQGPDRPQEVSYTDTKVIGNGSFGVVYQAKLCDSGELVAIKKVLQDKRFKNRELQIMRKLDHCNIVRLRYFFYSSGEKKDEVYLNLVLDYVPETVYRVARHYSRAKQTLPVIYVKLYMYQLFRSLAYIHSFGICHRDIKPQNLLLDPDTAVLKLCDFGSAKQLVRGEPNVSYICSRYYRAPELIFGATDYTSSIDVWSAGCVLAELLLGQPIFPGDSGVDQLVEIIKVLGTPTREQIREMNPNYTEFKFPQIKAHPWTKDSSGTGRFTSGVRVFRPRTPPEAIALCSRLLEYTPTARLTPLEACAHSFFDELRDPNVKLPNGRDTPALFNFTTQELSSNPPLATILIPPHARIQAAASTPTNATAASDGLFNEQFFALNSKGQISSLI", "test": "GSK-3β kinase assay", "type": "biochemical, rabbit", "details": "read-out: Kinase inhibition IC50 GSK3β", "experimental": "GSK-3 was obtained from New England Biolabs (UK) Ltd., Hitchin, Herts. The recombinant enzyme was isolated from a strain of E. coli that carries a clone expressing GSK-3β derived from a rabbit skeletal muscle cDNA library. Inhibition of GSK-3 function was assessed by measurement of phosphorylation of CREB phosphopeptide KRREILSRRPpSYR in the presence of test compounds. Using a 96-well assay format, GSK3 (7.5 U) was incubated for 30 min at 30° C. in a total volume of 25 μL in 20 mM MOPS pH 7.2, 25 mM β-glycerophosphate, 5 mM EGTA, 1 mM DTT, 1 mM […], 40 μM CREB peptide, 15 mM MgCl2 and 100 μM ATP (containing 0.25 μCi [γ-^32P]-ATP) in the presence of varying concentrations of test compound. The samples were transferred to 96-well p81 filter plates (Whatman Polyfiltronics, Kent, UK), and the plates were washed 4 times with 200 μL/well of 75 mM aq orthophosphoric acid. Scintillation liquid (50 μL) was added to each well, and incorporated radioactivity for each sample was determined using a scintillation counter (TopCount, Packard Instruments, Pangbourne, Berks, UK)."}, "CDK2/cyclin E": {"molecular_target": "T2, CDK2/cyclin E (Homo sapiens, UniProt P24941)", "T2 construct": "His6 (N); made in house; host or cells: Sf9 insect cells (baculovirus)", "test": "CDK/cyclin kinase assay, CDK2/cyclin E", "type": "biochemical", "details": "primary screening at 1 μM", "experimental": "(§2) CDK4/cyclin D1, CDK1/cyclin B, CDK2/cyclin E, CDK2/cyclin A, CDK9/cyclin T1 and CDK7/cyclin H, all with a His6 tag on the N-terminus, were expressed in Sf9 insect cells using an appropriate baculovirus construct. Sf9 culture (1.6×10^6 cells/mL) was infected (MOI of 3) for two days. The cells were harvested by low speed centrifugation and the protein was purified from the insect cell pellet by metal affinity chromatography. In short: the insect cell pellet was lysed in Buffer A (10 mM Tris-HCl pH 8.0, 150 mM NaCl, 0.02% NP-40, 5 mM β-mercaptoethanol, 20 mM NaF, 1 mM Na3VO4, and Sigma Protease Inhibitor Cocktail) by sonication. The soluble fraction was cleared by centrifugation and loaded onto Ni-NTA-Agarose (Qiagen). Non-bound protein was washed off with 300 mM NaCl, 5-15 mM imidazole in buffer A and the bound protein was eluted with buffer A supplemented with 250 mM imidazole. The purified proteins were extensively dialyzed against storage buffer (20 mM HEPES pH 7.4, 50 mM NaCl, 2 mM DTT, 1 mM EDTA, 1 mM EGTA, 0.02% NP-40, 10% v/v glycerol) and stored at −70° C.\n(§3) Compounds were investigated for their CDK2/cyclin E, CDK2/cyclin A, CDK1/cyclin B, and CDK4/cyclin D1 inhibitory activity. His6-tagged recombinant human cyclin-dependent kinases CDK1/cyclin B1, CDK2/cyclin E, CDK2/cyclin A, and CDK4 were expressed in sf9 insect cells using a baculovirus expression system. Recombinant cyclin D1 was expressed in E. coli. Proteins were purified by metal chelate affinity chromatography to greater than 90% homogeneity. Kinase assays were performed in 96-well plates using recombinant CDK/cyclins. Assays were performed in assay buffer (25 mM β-glycerophosphate, 20 mM MOPS, 5 mM EGTA, 1 mM DTT, 1 mM […], pH 7.4), into which were added 2-4 μg of active enzyme with appropriate substrates (purified histone H1 for CDK1 and CDK2, recombinant GST-retinoblastoma protein (residues 773-928) for CDK4). The reaction was initiated by addition of Mg/ATP mix (15 mM MgCl2+100 μM ATP with 30-50 kBq per well of [γ-^32P]-ATP) and mixtures incubated for 10-45 min, as required, at 30° C. Reactions were stopped on ice, followed by filtration through p81 or GF/C filterplates (for CDK4) (Whatman Polyfiltronics, Kent, UK). After washing 3 times with 75 mM aq orthophosphoric acid, plates were dried, scintillant added and incorporated radioactivity measured in a scintillation counter (TopCount, Packard Instruments, Pangbourne, Berks, UK). Compounds for kinase assays were made up as 10 mM stocks in DMSO and diluted into 10% DMSO in assay buffer. Data was analysed using curve-fitting software (GraphPad Prism version 3.00 for Windows, GraphPad Software, San Diego Calif. USA) to determine IC50 values (concentration of test compound which inhibits kinase activity by 50%)."}, "CDK2/cyclin A": {"molecular_target": "T3, CDK2/cyclin A (Homo sapiens, UniProt P24941)", "T3 construct": "His6 (N); made in house; host or cells: Sf9 insect cells (baculovirus)", "test": "CDK/cyclin kinase assay, CDK2/cyclin A", "type": "biochemical", "details": "primary screening at 1 μM", "experimental": "as §2, §3"}, "CDK1/cyclin B1": {"molecular_target": "T4, CDK1/cyclin B1 (Homo sapiens, UniProt P06493)", "T4 construct": "His6 (N); made in house; host or cells: Sf9 insect cells (baculovirus)", "T4 sequence (P06493 whole entry)": "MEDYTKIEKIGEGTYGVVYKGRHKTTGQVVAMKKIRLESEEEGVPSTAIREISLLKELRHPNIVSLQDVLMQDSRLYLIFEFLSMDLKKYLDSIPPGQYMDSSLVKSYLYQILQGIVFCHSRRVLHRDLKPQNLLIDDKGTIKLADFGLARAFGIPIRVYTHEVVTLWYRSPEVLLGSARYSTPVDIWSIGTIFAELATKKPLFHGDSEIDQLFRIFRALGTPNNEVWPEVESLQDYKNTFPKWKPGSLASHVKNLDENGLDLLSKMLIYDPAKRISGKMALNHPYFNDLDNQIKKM", "T4 sequence (P14635 whole entry partner)": "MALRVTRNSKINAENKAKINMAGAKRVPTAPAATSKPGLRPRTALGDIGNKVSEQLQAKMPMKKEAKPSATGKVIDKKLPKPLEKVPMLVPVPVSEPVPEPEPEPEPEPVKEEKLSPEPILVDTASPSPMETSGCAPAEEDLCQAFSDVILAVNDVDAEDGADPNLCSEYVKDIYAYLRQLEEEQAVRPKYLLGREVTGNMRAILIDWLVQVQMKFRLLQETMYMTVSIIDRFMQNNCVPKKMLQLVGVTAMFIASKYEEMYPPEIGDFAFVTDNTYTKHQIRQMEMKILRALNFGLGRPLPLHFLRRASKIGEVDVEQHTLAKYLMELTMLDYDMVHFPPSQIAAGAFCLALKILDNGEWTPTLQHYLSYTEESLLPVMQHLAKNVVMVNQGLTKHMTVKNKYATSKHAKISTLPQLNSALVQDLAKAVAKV", "test": "CDK/cyclin kinase assay, CDK1/cyclin B1", "type": "biochemical", "details": "primary screening at 1 μM", "experimental": "as §2, §3"}, "CDK4/cyclin D1": {"molecular_target": "T5, CDK4/cyclin D1 (Homo sapiens, UniProt P11802)", "T5 construct": "His6 (N); made in house; host or cells: CDK4: Sf9 insect cells (baculovirus); Cyclin D1: E. coli, Sf9", "T5 sequence (P11802 whole entry)": "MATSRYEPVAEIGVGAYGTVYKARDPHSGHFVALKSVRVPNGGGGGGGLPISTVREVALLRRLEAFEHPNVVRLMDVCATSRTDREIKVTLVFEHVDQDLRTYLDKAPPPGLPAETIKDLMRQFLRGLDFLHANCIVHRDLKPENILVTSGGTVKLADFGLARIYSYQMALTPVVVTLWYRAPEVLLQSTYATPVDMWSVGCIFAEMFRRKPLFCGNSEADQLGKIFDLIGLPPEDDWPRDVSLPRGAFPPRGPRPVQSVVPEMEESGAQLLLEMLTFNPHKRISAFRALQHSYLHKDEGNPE", "T5 sequence (P24385 whole entry partner)": "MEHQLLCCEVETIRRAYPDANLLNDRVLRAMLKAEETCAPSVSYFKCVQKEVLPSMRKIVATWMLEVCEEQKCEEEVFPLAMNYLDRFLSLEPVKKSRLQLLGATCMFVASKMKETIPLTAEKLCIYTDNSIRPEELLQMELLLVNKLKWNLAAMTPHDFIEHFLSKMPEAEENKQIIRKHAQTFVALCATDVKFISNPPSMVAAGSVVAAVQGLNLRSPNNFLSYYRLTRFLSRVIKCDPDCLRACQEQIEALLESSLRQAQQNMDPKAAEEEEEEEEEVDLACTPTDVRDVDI", "test": "CDK/cyclin kinase assay, CDK4/cyclin D1", "type": "biochemical", "details": "read-out: Kinase inhibition IC50 CDK4/D1", "experimental": "as §2, §3"}}}
{"smiles": "[Cl-].[Li+]", "note": "[LiCl, reference compound]", "values": [{"measurement": "Fold induction of GS activity", "setting": "[1]; HEK293 cells, 40 mM", "value": 3.7, "unit": "fold"}, {"measurement": "Fold induction of GS activity", "setting": "[2]", "value": 2, "unit": "fold"}, {"measurement": "β-catenin-dependent luciferase activity", "setting": "[3]", "value": "massive induction"}]}
{"smiles": "CCOC(=O)c1sc(-c2ccnc(Nc3ccc(Cl)nc3)n2)nc1O", "note": "[XXIV, 2-[2-(6-Chloro-pyridin-3-ylamino)-pyrimidin-4-yl]-4-hydroxy-thiazole-5-carboxylic acid ethylester]", "values": [{"measurement": "IC50", "setting": "GSK-3β", "value": 19, "unit": "nM"}, {"measurement": "inhibition at 1 µM", "setting": "CDK2/cyclin E", "value": "< 50", "unit": "%"}, {"measurement": "inhibition at 1 µM", "setting": "CDK2/cyclin A", "value": "< 50", "unit": "%"}, {"measurement": "inhibition at 1 µM", "setting": "CDK1/cyclin B1", "value": "< 50", "unit": "%"}, {"measurement": "IC50", "setting": "CDK4/cyclin D1", "value": 960, "unit": "nM"}, {"measurement": "fold induction at 5 µM", "setting": "[1]", "value": "4.3 ± 0.32"}]}
{"smiles": "OCCc1sc(-c2ccnc(Nc3ccc(Cl)nc3)n2)nc1O", "note": "[XXVI, 2-[2-(6-Chloro-pyridin-3-ylamino)-pyrimidin-4-yl]-5-(2-hydroxy-ethyl)-thiazol-4-ol]", "values": [{"measurement": "IC50", "setting": "GSK-3β", "value": 164, "unit": "nM"}, {"measurement": "inhibition at 1 µM", "setting": "CDK2/cyclin E", "value": "< 50", "unit": "%"}, {"measurement": "inhibition at 1 µM", "setting": "CDK2/cyclin A", "value": "< 50", "unit": "%"}, {"measurement": "inhibition at 1 µM", "setting": "CDK1/cyclin B1", "value": "< 50", "unit": "%"}, {"measurement": "IC50", "setting": "CDK4/cyclin D1", "value": 2080, "unit": "nM"}, {"measurement": "fold induction at 5 µM", "setting": "[1]", "value": "5.2 ± 3.2"}]}
